According to US20100324017A1, “ACYLGUANIDINE DERIVATIVE” (priority 2007, published 2010):

Test system: PCP-induced prepulse inhibition (PPI) disorder
Assay: Disorder of PCP-induced prepulse inhibition (PPI) in a rat
Assay type: in vivo
Conditions: dose 10 mg/kg, PCP 1 mg/kg s.c., % PPI
Procedure: An Improvement Effect for a Disorder of PCP-Induced Prepulse Inhibition (PPI) in a Rat
A startle amplitude occurs in humans to which an sound stimulus has been given, but in healthy human, this startle amplitude is inhibited by the giving of a weak sound stimulus that precedes the sound stimulus. For a patient with schizophrenia, the inhibitory function similarly declined. It is known that when a rat is administered with PCP (phencyclidine), there is a symptom similar to the negative symptom of schizophrenia in humans. Using this model, the improvement effect of the compound (I) for the information processing disorder included in cognitive impairment of schizophrenia was evaluated.
Species: Male Wistar rat/number of the animals (number of animals per group): 12 animals per group
Startle amplitude measuring device for small animals: an SR-LAB ABS system (manufactured by San Diego Instruments)
An animal holder, to which a Plexiglas-made cylinder for animal storage having a diameter of 8.2 cm was attached, was positioned in the upper part of a Plexiglas-made frame in a measurement box. In the measurement box, a sound-insulating treatment and ventilation (FAN) were carried out. Sound was administered by a speaker attached to the 24 cm upper part of the cylinder. The movement of the animals in the cylinder was detected by a transducer attached in the lower part of the frame and recorded by a microcomputer via an interface.
The experiment was initiated after the animals were put into the chamber for measurement and had spent 10 minutes adapting to the measurement environment. Basically, at 35 minutes after the compound to be tested was orally administered, 1 mg/kg of PCP was subcutaneously administered (1 ml/kg). Five minutes later, the rats were put into a chamber for measurement, allowed to adapt for 10 minutes, and the measurement was then initiated. A white noise of 65 dB (for all frequencies, a disordered noise having a constant energy per unit band) used as a background noise was always played through the break periods and the sessions. The three types of trials as shown below were carried out in a random order 10 times for each type with 30 times in total. Each trial was carried out at a pseudo-random interval of 20 to 60 seconds with an average of 40 seconds. A pulse was defined as a white noise of 120 dB, 20 msec, and a prepulse was defined as a white noise of 70, 80 dB, 20 msec.
The startle amplitude of the animal was measured for 100 msec from the initiation of the pulse, and the maximum value was taken as a “maximum startle amplitude (Vmax))”. The “maximum startle amplitude” for the ten times for each of the three types of trials were averaged, and taken as a “startle amplitude (simply referred to as SA)” under the stimulation condition.
The % prepulse inhibition (% PPI) was calculated in the following equation in the PP80 & P trial of 3) above.
% Prepulse inhibition (% PPI)=(Startle amplitude at P-alone trial (SA)−Startle amplitude (SA) at a PP80 & P trial)/Startle amplitude at P alone trial×100
The measured value was expressed as an average value (mean±SE). First, the startle amplitudes (SA) were statistically analyzed. […] For the measured data of % PPI, the normal group and the control group (the group administered with PCP) were compared by a Student t-test, and for the control group and the group administered with the compound to be tested were compared using a Dunnett evaluation. […] The effect of the compound to be tested was assessed with % PPI.

OCCOCCN1CCN(C2=Nc3ccccc3Sc3ccccc32)CC1 [quetiapine, reference compound]
improvement of the PCP-induced PPI: significantly improved
